Test results as given in patent US20190125735A1, “INHIBITION OF P38 MAPK FOR THE TREATMENT OF CANCER” (Board of Regents, The University of Texas System, priority 2015, published 2019).

Experiments:
HMLER cells = assay: Scratch/wound-healing assay, HMLER cells expressing FOXC2 variants; format: cell-based, human
Experimental: For this, phosphomimetic FOXC2(S367E) and non-phosphorylatable FOXC2(S367A) mutants were generated and their ability to bestow mesenchymal and stem-cell traits relative to wild-type FOXC2 (referred to as FOXC2) was evaluated.

BCR-ABL+ mouse ALL cells = settings: MSC co-culture
Experimental: Leukemic cell apoptosis was analyzed by flow cytometry using BD LSRFortessa or Accuri C6 flow cytometer (BD Biosciences) after the cells were stained with Annexin V (BD Biosciences, San Jose, Calif.). Data were analyzed by FlowJo software (Ashland, Oreg.).

DU145 cells = assay: Morphology and marker expression (qRTPCR, immunoblotting, IF) in DU145 cells; format: cell-based, human
Experimental: Cell lines: Authenticated LNCaP, DU145, and PC3 cells were procured from ATCC and cultured in RPMI with 10% fetal bovine serum (FBS) with penicillin/streptomycin. Cells overexpressing EMT transcription factors and shRNA were also cultured in the same media. HEK293T cells were cultured in DMEM with 10% FBS and penicillin/streptomycin. All cell lines used for this study were recently confirmed negative for mycoplasma contamination.
Immunoblotting, Immunofluorescence, RTPCR, wound healing- and tumorsphere assays were performed as previously described (Sarkar et al., 2015). Cell viability (MTS) was assessed using the CellTiter96 Aqueous One-Solution Cell Proliferation Assay kit (Promega).

[1] = test system: HMLE-Snail-ER and HMLE-Twist-ER cells; assay: Sphere formation of 4-OHT-treated HMLE-Snail-ER and HMLE-Twist-ER cells; format: cell-based, human; settings: 4-OHT-treated cells, SB203580 exposure
Experimental: FIGS. 15A-15L: p38 inhibition compromises the acquisition and maintenance of EMT and stem cell properties in vitro. […] Cells were harvested and the corresponding lysates were analyzed by immunoblotting for FOXC2, E-cadherin and mesenchymal markers. β-actin was used as a loading control. […] Cells were harvested at the indicated timepoints and the corresponding lysates were analyzed by immunoblotting for FOXC2, E-cadherin and mesenchymal markers. β-actin was used as a loading control. […] One thousand cells were seeded per well in ultra-low attachment plates and cultured for 7-10 days. Spheres with a diameter greater than 75 μm were counted. The data are reported as the number of spheres formed/1000 seeded cells±SEM. […] Data are presented as mean±SEM. […] The corresponding lysates were analyzed by immunoblotting for FOXC2, E-cadherin and mesenchymal markers. β-actin was used as a loading control. (F) The sphere-forming efficiency of 4-OHT-treated HMLE-Twist-ER cells, transduced with control shRNA (shControl) or p38 shRNA (shp38), was determined. […] (H) The sphere-forming efficiency of the indicated cells was determined in the presence of vehicle or SB203580. […] (J) The relative wound closure by the indicated cells, treated with vehicle or SB203580, was measured by image analysis and represented in a graphical format. […] Degradation of FITC-gelatin was quantified by image analysis. n=150 cells/sample. […]

In the case of C[S+]([O-])c1ccc(-c2nc(-c3ccc(F)cc3)c(-c3ccncc3)[nH]2)cc1 (stereo not shown) [SB203580, 4-(4-Fluorophenyl)-2-(4-methylsulfinylphenyl)-5-(4-pyridyl) 1H-imidazole], the Decrease in wound-closure (HMLER cells; HMLER-FOXC2(S367E) cells) was < 30%, the “Inhibition of migration (wound closure)” value (HMLER cells; HMLER-FOXC2 cells) was > 70% and the “Inhibition of migration (wound closure)” value (HMLER cells; HMLER-vector cells) was > 70%. The “Apoptosis of leukemic cells” value (BCR-ABL+ mouse ALL cells) was “did not affect proliferation or apoptosis of leukemic cells”, the “AR and PSA expression” value (DU145 cells; DU145, 5 μM, 7 days) was “restoration of AR and PSA expression” and the “Expression of Bmi1 and Sox2” value (DU145 cells; DU145, 5 μM, 7 days) was “significant reduction”. The FOXC2 expression (DU145 cells; DU145, 5 μM, 7 days) was “dramatic loss in FOXC2 expression”, the Morphology / phenotype (DU145 cells; DU145, 5 μM, 7 days) was “acquisition of an epithelial phenotype” and the “Expression of AR, PSA and E-cadherin over time (qRTPCR)” value (DU145 cells; DU145, days 0-7 after treatment) was “consistently increased right after 48 hours, but reached highest levels at day 7”. The Sphere-forming potential [1] was “failed to acquire sphere-forming potential”.
